Reference: patent publication US11753446B2, “Beta-hairpin peptidomimetics” (POLYPHOR AG, priority 2014, dated 2023)
Where two headings read alike, the source gives them in different places. Where a SMILES comes first, the peptide text is derived from it. Bridges are numbered along the chain shown (N, C = ends). [ ]: non-standard residue; d: D form. Tle = CC(C)(C)[C@H](N)C(=O)O; dDab = NCC[C@@H](N)C(=O)O; Orn = NCCC[C@H](N)C(=O)O; Dab = NCC[C@H](N)C(=O)O; Dap = NC[C@H](N)C(=O)O

Experiments:
[1] = tested on: Acinetobacter baumannii DSM 30008; type: cell-based
Description: (§1) Stock solutions were kept at +4° C., light protected.
(§2) The selective antimicrobial activities of the peptides were determined in 96-well plates (Greiner, polystyrene) by the standard NCCLS broth microdilution method (National Committee for Clinical Laboratory Standards 1993. Methods for dilution antimicrobial susceptibility tests for bacteria that grow aerobically, 3rd ed. Approved standard M7-A6; National Committee for Clinical laboratory standards, Wayne, Pa.) with slight modifications. Inocula of the microorganisms were diluted into Mueller-Hinton II (MH, cation adjusted) broth and compared with a 0.5 McFarland standard to give appr. 10^6 colony forming units (CFU)/mL. Aliquots (90 μl) of inoculate were added to 10 μl of MH broth+P-80 (Polysorbate 80, 0.002% final concentration) containing the peptide in serial two-fold dilutions. The following microorganisms were used to determine antibiotic selectivity of the peptides: Escherichia coli ATCC 25922, Klebsiella pneumoniae ATCC 13883 and Acinetobacter baumannii DSM 30008.

[2] = tested on: Escherichia coli ATCC 25922; type: cell-based
Description: as §1, §2

[3] = tested on: Klebsiella pneumoniae ATCC 13883; type: cell-based
Description: as §1, §2

[4] = tested on: human red blood cells (hRBC); test: Hemolysis: hemolytic activity at 100 μg/mL, 1 h at 37° C.
Description: Lyophilized peptides were weighed on a Microbalance (Mettler MT5) and dissolved in sterile water to a final concentration of 1 mg/mL. Stock solutions were kept at +4° C., light protected.
The peptides were tested for their hemolytic activity against human red blood cells (hRBC). Fresh hRBC were washed three times with phosphate buffered saline (PBS) and centrifuged for 5 min at 3000×g. Compounds (100 μg/mL) were incubated with 20% hRBC (v/v) for 1 h at 37° C. and shaking at 300 rpm. The final erythrocyte concentration was approximately 0.9×10^9 cells/mL. A value of 0% and 100% cell lyses, respectively, was determined by incubation of hRBC in the presence of PBS containing 0.001% acetic acid and 2.5% Triton X-100 in H2O, respectively. The samples were centrifuged, the supernatants were 8-fold diluted in PBS buffer and the optical densities (OD) were measured at 540 nm.
Percent hemolysis was calculated as follows: (OD540peptide/OD540H2O)×100%.

[5] = Mueller-Hinton II broth, 18-20 hours at 35° C.

Structure (SMILES)	Acinetobacter baumannii DSM 30008 MIC ([1]; DSM 30008)	Escherichia coli ATCC 25922 MIC ([2]; ATCC 25922)	Klebsiella pneumoniae ATCC 13883 MIC ([3]; ATCC 13883)	Hemolysis at 100 μg/mL ([4]; red cells of human, 1 h, 100)	Hemolysis at 100 μg/mL ([4]; red cells of human, 1 h, 100 μg/mL)	Acinetobacter baumannii DSM 30008 MIC [1, 5]	Escherichia coli ATCC 25922 MIC [2, 5]	Klebsiella pneumoniae ATCC 13883 MIC [3, 5]	Hemolysis at 100 μg/mL ([4]; 100 μg/mL, 20% hRBC, 1 h at 37° C.)
CC(C)[C@@H]1NC(=O)[C@@H]2CCCN2C(=O)[C@@H](C)NC(=O)[C@H](CO)NC(=O)[C@@H]2CC(=O)NCC[C@H](NC1=O)C(=O)N[C@@H](Cc1ccc(O)cc1)C(=O)N[C@@H](CCN)C(=O)N[C@@H](CN)C(=O)N[C@H](CCN)C(=O)N[C@@H](CCN)C(=O)N[C@@H](Cc1c[nH]c3ccccc13)C(=O)N[C@@H](CCN)C(=O)N[C@@H](C(C)(C)C)C(=O)N2 [Example 27, cyclo(-Val-Dab-Tyr-Dab-Dap-^DDab-Dab-Trp-Dab-tBuGly-Asp-Ser-^DAla-Pro-)] (cyclo(DS[dA]PV[Dab]Y[Dab][Dap][dDab][Dab]W[Dab][Tle]); lactam 1-6)	1 µg/mL	0.5 µg/mL	0.5 µg/mL	2%					
CC(C)C[C@@H]1NC(=O)[C@H](CCCNC(=N)N)NC(=O)[C@H]2CCCN2C(=O)[C@H](C(C)C)NC(=O)[C@@H]2CSSC[C@H](NC1=O)C(=O)N[C@@H](Cc1ccc(O)cc1)C(=O)N[C@H]1CSSC[C@H](NC(=O)[C@H](Cc3c[nH]c4ccccc34)NC(=O)[C@H](CCN)NC(=O)[C@H](CCN)NC(=O)[C@H](CCN)NC1=O)C(=O)N[C@@H](Cc1ccc(O)cc1)C(=O)N2 [Example 42, cyclo(-Leu-Cys-Tyr-Cys-Dab-Dab-Dab-Trp-Cys-Tyr-Cys-Val-^DPro-Arg-)] (HELM PEPTIDE1{C.[Dab].[Dab].[Dab].W.C.Y.C.V.[dP].R.L.C.Y}$PEPTIDE1,PEPTIDE1,1:R3-6:R3|PEPTIDE1,PEPTIDE1,8:R3-13:R3|PEPTIDE1,PEPTIDE1,1:R1-14:R2$$$V2.0)	1 µg/mL	4 µg/mL	2 µg/mL		3%				
CC(C)C[C@@H]1NC(=O)[C@H](CCN)NC(=O)[C@@H](CCN)NC(=O)[C@H](CO)NC(=O)[C@H](C)NC(=O)[C@H](Cc2ccc(O)cc2)NC(=O)[C@@H]2CSSC[C@H](NC(=O)[C@H](Cc3ccc(O)cc3)NC(=O)[C@H](CO)NC1=O)C(=O)N[C@@H](CCCN)C(=O)N[C@H](CCN)C(=O)N[C@@H](CCN)C(=O)N[C@@H](Cc1c[nH]c3ccccc13)C(=O)N2 [Example 38, cyclo(-Leu-Ser-Tyr-Cys-Orn-^DDab-Dab-Trp-Cys-Tyr-Ala-Ser-^DDab-Dab-)] (HELM PEPTIDE1{A.S.[NCC[C@@H](N[*:1])C(=O)[*:2]].[Dab].L.S.Y.C.[Orn].[NCC[C@@H](N[*:1])C(=O)[*:2]].[Dab].W.C.Y}$PEPTIDE1,PEPTIDE1,8:R3-13:R3|PEPTIDE1,PEPTIDE1,1:R1-14:R2$$$V2.0)	3 µg/mL	2 µg/mL	2 µg/mL	1%					
CC(C)C[C@@H]1NC(=O)[C@H](CCN)NC(=O)[C@@H](CCN)NC(=O)[C@H](CCCN)NC(=O)[C@H](CC(N)=O)NC(=O)[C@H](Cc2ccc(O)cc2)NC(=O)[C@@H]2CSSC[C@H](NC(=O)[C@H](C(C)(C)C)NC(=O)[C@H](CO)NC1=O)C(=O)N[C@@H](C(C)C)C(=O)N[C@H](CCN)C(=O)N[C@@H](CCCNC(=N)N)C(=O)N[C@@H](CC(C)C)C(=O)N2 [Example 4, cyclo(-Leu-Cys-Tyr-Asn-Orn-^DDab-Dab-Leu-Ser-tBuGly-Cys-Val-^DDab-Arg-)] (cyclo(CV[dDab]RLCYN[Orn][dDab][Dab]LS[Tle]); disulfide 1-6)	0.25 µg/mL	0.75 µg/mL	0.5 µg/mL	4%					
CC(C)[C@@H]1NC(=O)[C@@H]2CSSC[C@H](NC(=O)[C@H](Cc3ccc(O)cc3)NC(=O)[C@H]([C@@H](C)O)NC(=O)[C@H](Cc3c[nH]c4ccccc34)NC(=O)[C@H](CCN)NC(=O)[C@@H](CCN)NC(=O)[C@H](CCCN)NC(=O)[C@H]([C@@H](C)O)NC1=O)C(=O)N[C@@H](CCN)C(=O)N[C@H](CCN)C(=O)N[C@@H](CCCNC(=N)N)C(=O)N[C@@H](Cc1ccccc1)C(=O)N2 [Example 24, cyclo(-Phe-Cys-Val-Thr-Orn-^DDab-Dab-Trp-Thr-Tyr-Cys-Dab-^DDab-Arg-)] (HELM PEPTIDE1{C.[Dab].[NCC[C@@H](N[*:1])C(=O)[*:2]].R.F.C.V.T.[Orn].[NCC[C@@H](N[*:1])C(=O)[*:2]].[Dab].W.T.Y}$PEPTIDE1,PEPTIDE1,1:R3-6:R3|PEPTIDE1,PEPTIDE1,1:R1-14:R2$$$V2.0)						2 µg/mL	1 µg/mL	2 µg/mL	0%
CC(C)C[C@@H]1NC(=O)[C@H](CCCNC(=N)N)NC(=O)[C@@H](CCN)NC(=O)[C@H](C(C)C)NC(=O)[C@@H]2CSSC[C@H](NC1=O)C(=O)N[C@@H](Cc1ccc(O)cc1)C(=O)N[C@@H](CCC(N)=O)C(=O)N[C@@H](CCCN)C(=O)N[C@H](CCN)C(=O)N[C@@H](CCN)C(=O)N[C@@H](Cc1c[nH]c3ccccc13)C(=O)N[C@@H](CO)C(=O)N[C@@H](Cc1ccc(O)cc1)C(=O)N2 [Example 62, cyclo(-Leu-Cys-Tyr-Gln-Orn-^DDab-Dab-Trp-Ser-Tyr-Cys-Val-^DDab-Arg-)] (HELM PEPTIDE1{C.V.[NCC[C@@H](N[*:1])C(=O)[*:2]].R.L.C.Y.Q.[Orn].[NCC[C@@H](N[*:1])C(=O)[*:2]].[Dab].W.S.Y}$PEPTIDE1,PEPTIDE1,1:R3-6:R3|PEPTIDE1,PEPTIDE1,1:R1-14:R2$$$V2.0)	0.625 µg/mL	0.375 µg/mL	1 µg/mL	2%					
CC(C)C[C@@H]1NC(=O)[C@@H]2CCCN2C(=O)[C@@H](CCN)NC(=O)[C@H](CO)NC(=O)[C@H](C(C)C)NC(=O)[C@H](C(C)(C)C)NC(=O)[C@@H]2CC(=O)NCC[C@H](NC(=O)[C@H](Cc3ccc(O)cc3)NC(=O)[C@H](Cc3ccc(O)cc3)NC1=O)C(=O)N[C@@H](CCCN)C(=O)N[C@H](CCN)C(=O)N[C@@H](CCN)C(=O)N[C@@H](Cc1c[nH]c3ccccc13)C(=O)N2 [Example 41, cyclo(-Leu-Tyr-Tyr-Dab-Orn-^DDab-Dab-Trp-Asp-tBuGly-Val-Ser-^DDab-Pro-)] (cyclo(D[Tle]VS[dDab]PLYY[Dab][Orn][dDab][Dab]W); lactam 1-10)	2 µg/mL	2 µg/mL	1 µg/mL	2%					
CC(C)C[C@@H]1NC(=O)[C@H](CCCNC(=N)N)NC(=O)[C@@H](CCN)NC(=O)[C@H](C(C)C)NC(=O)[C@@H]2CSSC[C@H](NC1=O)C(=O)N[C@@H](Cc1ccc(O)cc1)C(=O)N[C@@H](CC(N)=O)C(=O)N[C@@H](CCCN)C(=O)N[C@H](CCN)C(=O)N[C@@H](CCN)C(=O)N[C@@H](Cc1c[nH]c3ccccc13)C(=O)N[C@@H](CC(N)=O)C(=O)N[C@@H](Cc1ccc(O)cc1)C(=O)N2 [Example 53, cyclo(-Leu-Cys-Tyr-Asn-Orn-^DDab-Dab-Trp-Asn-Tyr-Cys-Val-^DDab-Arg-)] (HELM PEPTIDE1{C.V.[NCC[C@@H](N[*:1])C(=O)[*:2]].R.L.C.Y.N.[Orn].[NCC[C@@H](N[*:1])C(=O)[*:2]].[Dab].W.N.Y}$PEPTIDE1,PEPTIDE1,1:R3-6:R3|PEPTIDE1,PEPTIDE1,1:R1-14:R2$$$V2.0)	1.5 µg/mL	1 µg/mL	1 µg/mL	1%					
CC(C)C[C@@H]1NC(=O)[C@H](CCCNC(=N)N)NC(=O)[C@@H](CCN)NC(=O)[C@H](C(C)C)NC(=O)[C@@H]2CSSC[C@H](NC1=O)C(=O)N[C@@H](Cc1ccc(O)cc1)C(=O)N[C@@H](C(C)C)C(=O)N[C@@H](CCCN)C(=O)N[C@H](CCN)C(=O)N[C@@H](CCN)C(=O)N[C@@H](Cc1c[nH]c3ccccc13)C(=O)N[C@@H](Cc1ccc(O)cc1)C(=O)N[C@@H](Cc1ccc(O)cc1)C(=O)N2 [Example 21, cyclo(-Leu-Cys-Tyr-Val-Orn-^DDab-Dab-Trp-Tyr-Tyr-Cys-Val-^DDab-Arg-)] (HELM PEPTIDE1{C.V.[NCC[C@@H](N[*:1])C(=O)[*:2]].R.L.C.Y.V.[Orn].[NCC[C@@H](N[*:1])C(=O)[*:2]].[Dab].W.Y.Y}$PEPTIDE1,PEPTIDE1,1:R3-6:R3|PEPTIDE1,PEPTIDE1,1:R1-14:R2$$$V2.0)	0.5 µg/mL	1 µg/mL	1 µg/mL	6%					
